In US20100240746A1, “STEREOISOMERS OF TRICYCLODECAN-9-YL-XANTHOGENATE” (LUMAVITA AG, priority 2007, published 2010):
pIC50: −log10 of the molar value. Converted amounts (≈) assume the structure as drawn. “Also recorded” adds a separate entry of the source.

What was measured:
[1] = tested on: HPV-31 specific RNA in HPV-31-infected CIN612 9E keratinocytes; assay: Short-term study, inhibition of HPV-31 specific RNA expression (Northern Blot); assay type: cell-based, human papilloma virus; settings: Human papillomavirus, Keratinocyte; 72 hrs, 37° C.
Experimental: The inhibitory activities of optically active (−)-enantiomer 1A against human papilloma virus were evaluated using HPV-31-infected CIN612 9E keratinocytes (Meyers et al., Science 1992, 257, 971-973).
(§1) Effect on HPV-31 specific DNA and RNA. HPV-31 infected cells (3×10^6) were dispensed into 14.5 cm dishes containing fresh E culture medium and 1×10^6 mitomycin C-treated J2 3T3 fibroblast feeders. After 6 hrs, fresh medium containing 0.85 g/L NaHCO3 and a test compound at a series of concentrations (0, 0.5, 1, 2, 4, 8, 16, and 32 μg/mL) were added. All samples were tested in duplicates at each concentration. After incubation at 37° C. for 72 hrs, the feeder cells were removed with 4 mM EDTA, and DNA and RNA was then isolated. The isolated DNA and RNA were analyzed in Southern and Northern Blot gels for HPV-31 specific sequences. Human A431 epithelial cancer cells were used as HPV-uninfected negative control. X-ray films were scanned and optical densities of HPV-31 specific DNA and major mRNA species were integrated.
(§2) Dose response curves were established by plotting integrated values against the concentrations of the test compound.

actin specific RNA = assay: Short-term study, effect on control RNA expression; assay type: cell-based; settings: 0-32 μg/mL, 72 hrs
Experimental: as §1, §2

[2] = tested on: HPV-31 specific RNA in HPV-31-infected CIN612 9E keratinocytes; assay: Long-term study, HPV-31 specific RNA (Northern Blot); assay type: cell-based, human papilloma virus
Experimental: (§3) HPV-31 infected cells (3×10^6) were dispensed into 14.5 cm dishes containing fresh E medium and 1×10^6 cells of mitomycin C-treated 3T3 fibroblast feeders. The dishes were incubated in a CO2 incubator under 5% CO2 at 37° C. in 100% humidity. Human A431 epithelial cancer cells were used as HPV-uninfected negative controls. After 6 hr incubation, the cell culture medium was removed and fresh E medium containing 0.85 g/L NaHCO3 and a test compound at concentrations of 10 and 3.3 μg/mL, or control (interferon γ at 200 IU/mL) were added. For each concentration, 4 dishes were prepared. The dishes were incubated at 37° C. in a CO2 incubator. The culture medium was replaced to new E medium containing each concentration of the test compound or control in every 72 hrs. After seven days, or when untreated cells became confluent, one dish of each group was harvested for DNA/RNA extraction, followed by Southern/Northern Blot analysis; and one dish was trypsinized, cell number were determined and cells were seeded in three new dishes, treated and cultured as described above. This procedure was repeated for 9 passages. During these passages, morphology of cells and cell density were monitored.
Effect on HPV-31 specific DNA and RNA: DNA and RNA were analyzed in Southern and Northern Blot gels for HPV-31 specific sequences. X-ray films were scanned and optical densities of HPV-31 specific DNA and major mRNA species were integrated. Time curves were established by plotting integrated values against number of passages for each treatment dose. The T50 (time required to reduce the level to 50% of control) was determined from the time curves from crossing points of time curves with a line parallel to the x-axis corresponding to 50% of integrals of untreated control sample.

[3] = target: T1, B. cereus PC-PLC (phosphatidylcholine-specific phospholipase C) (Bacillus cereus, UniProt P09598); assay: Inhibition of phosphatidylcholine-specific phospholipase C (Amplex Red PC-PLC assay kit); assay type: biochemical; settings: 30 min at 37° C., 0.2 U/mL PC-PLC solution, triplicate
T1 construct: purchased Invitrogen
T1 sequence (P09598 39-283 limits assumed): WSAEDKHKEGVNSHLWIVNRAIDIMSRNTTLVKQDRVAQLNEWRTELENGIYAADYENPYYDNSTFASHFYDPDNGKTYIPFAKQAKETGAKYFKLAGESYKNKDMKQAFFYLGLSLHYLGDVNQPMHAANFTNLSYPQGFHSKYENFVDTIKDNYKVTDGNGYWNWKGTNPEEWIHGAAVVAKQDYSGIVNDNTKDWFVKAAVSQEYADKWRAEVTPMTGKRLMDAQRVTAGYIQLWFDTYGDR
Experimental: The inhibitory activities of optically active potassium salts of (+)- and (−)-O-exo/C-exo-tricyclo [5.2.1.0^2,6]-dec-9-yl-xanthic acid 1A ((+)- and (−)-enantiomers 1A) against phosphatidylcholine-specific phospholipase C were evaluated, together with D609 and potassium salt of racemic O-exo/C-exo xanthic acid 1A (racemic 1A), using Amplex Red phosphatidylcholine-specific phospholipase C(PC-PLC) assay kit, which was obtained from Invitrogen (Calsbad, Calif.). D609 was obtained from Sigma Aldrich.
An Amplex Red stock solution (˜20 mM), a working reaction buffer, and a horseradish peroxidase stock solution (200 U/mL), a H2O2 working solution (20 mM), a choline oxidate stock solution (20 U/mL), an alkaline phosphatase stock solution (400 U/mL), and a B. cereus PC-PLC stock solution (10 U/mL) were prepared according to the instruction of the assay kit. The stock solution (100 mg/mL) for each test compound was also prepared by dissolving the compound in water 2 hr prior to the start of the experiment.
A working Amplex Red/HRP/lecithin solution was prepared by adding 200 μL of Amplex Red reagent stock solution, 100 μL of HRP stock solution, 200 μL of alkaline phosphatase stock solution, 100 μL of choline oxidase stock solution, and 78 μL of the lecithin solution to […] of the working reaction buffer. PC-PLC solution (0.2 U/mL) was prepared by diluting the PC-PLC stock solution with the working reaction buffer to the desired concentration.
The test compound (25 μL) at a serious of concentrations was pipetted into a 96 well plate. For uninhibited PC-PLC controls and non-PC-PLC controls, 25 μL of water was added. After the addition of 50 μL of the Amplex Red/HRP/lecithin working solution, the reaction was initiated by adding 25 μL of PC-PLC solution to each well. […] After incubated for 30 min at 37° C., the reactions were measured with a fluorescence microplate reader using excitation at 550 nm and emission detection at 590 nm. The fluorescent data obtained were corrected for background fluorescence by subtracting the values obtained from the non-PC-PLC controls.

CIN 612 9E cells = assay: Long-term study, cell morphology; assay type: cell-based, human papilloma virus; settings: 10 μg/mL, after five passages
Experimental: as §3

[4] = tested on: A431 cells (epithelial cancer cells); assay: Long-term study, growth of HPV-uninfected control A431 cells over 9 passages; assay type: cell-based, human
Experimental: as §3
(§4) Effect on cell proliferation. Cell numbers in the dishes harvested were determined in a Neubauer hematocytometer. The multiplication factor was determined at every step of passage. The cell number of each culture at the end of the passage was divided by the number of seeded cells at the start of each passage. The end point was reached when keratinocytes treated with a test compound stopped growing. Stop of cell growth was defined as a multiplication factor of no greater than 1.

[5] = tested on: HPV-31-infected CIN612 9E keratinocytes; assay: Long-term study, effect on cell proliferation of CIN612 9E cells over 9 passages; assay type: cell-based, human papilloma virus
Experimental: as §3, §4

## S=C(S)OC1CC2CC1C1CCCC21 (single isomer, unassigned; (-)) [(−)-Enantiomer 1A, (−)-O-exo/C-exo-tricyclo[5.2.1.0^2,6]-dec-9-yl-xanthic acid]
[1]
  IC50: 10.7 µg/mL (≈ 46.9 µM)
Actin specific RNA
  expression of the control RNA (actin specific RNA): only affected at the highest concentration of 32 μg/mL
[2]; 3.3 μg/mL
  T50 RNA: 3.28 passages
[2]; 3.3 μg/mL or 10 μg/mL
  HPV-31 specific RNA content: continuous reductions
[2]; 10 μg/mL, listed as (−)-enantiomer 1A
  T50 RNA: < 1 passages
[2]; 10 μg/mL, listed as Cmpd 1A
  T50 RNA: <1 passages
[2]; Homo sapiens, Keratinocyte, 10 μg/mL, after 9 passages, read-out: viral RNA remaining
  mrna remaining at 10 µg/mL: < 1%
[3]
  pIC50: 4.80
CIN 612 9E cells
  morphology of cells: notable change in the morphology; also recorded: growing more organized like untransformed keratinocytes; also recorded: contact inhibited when cultures grew to confluency; also recorded: acquired a flat round shape
[4]; 3.3 μg/mL
  cell growth: slight inhibition of cell growth
[4]; 10 μg/mL
  cell growth: slight inhibition of cell growth
[4]; overall
  cell growth: only minor effects on cell growth
[5]; 3.3 μg/mL
  growth: reduction of the growth rate; also recorded: the cells almost stopped growing after 9 passages
[5]; 10 μg/mL
  cell proliferation: significant reduction of cell proliferation
[5]; 10 μg/mL, first five passages
  multiplication factor: 2-2.5
